Tests used:
[1] = biological target: T1, Mitogen-activated protein kinase kinase kinase kinase 3 (Homo sapiens) (UniProt Q8IVH8); test: Selectivity interaction (KinomeScan (DiscoverX)) EUB0000229b MAP4K3; conditions: at 10 µM
T1 sequence (whole entry): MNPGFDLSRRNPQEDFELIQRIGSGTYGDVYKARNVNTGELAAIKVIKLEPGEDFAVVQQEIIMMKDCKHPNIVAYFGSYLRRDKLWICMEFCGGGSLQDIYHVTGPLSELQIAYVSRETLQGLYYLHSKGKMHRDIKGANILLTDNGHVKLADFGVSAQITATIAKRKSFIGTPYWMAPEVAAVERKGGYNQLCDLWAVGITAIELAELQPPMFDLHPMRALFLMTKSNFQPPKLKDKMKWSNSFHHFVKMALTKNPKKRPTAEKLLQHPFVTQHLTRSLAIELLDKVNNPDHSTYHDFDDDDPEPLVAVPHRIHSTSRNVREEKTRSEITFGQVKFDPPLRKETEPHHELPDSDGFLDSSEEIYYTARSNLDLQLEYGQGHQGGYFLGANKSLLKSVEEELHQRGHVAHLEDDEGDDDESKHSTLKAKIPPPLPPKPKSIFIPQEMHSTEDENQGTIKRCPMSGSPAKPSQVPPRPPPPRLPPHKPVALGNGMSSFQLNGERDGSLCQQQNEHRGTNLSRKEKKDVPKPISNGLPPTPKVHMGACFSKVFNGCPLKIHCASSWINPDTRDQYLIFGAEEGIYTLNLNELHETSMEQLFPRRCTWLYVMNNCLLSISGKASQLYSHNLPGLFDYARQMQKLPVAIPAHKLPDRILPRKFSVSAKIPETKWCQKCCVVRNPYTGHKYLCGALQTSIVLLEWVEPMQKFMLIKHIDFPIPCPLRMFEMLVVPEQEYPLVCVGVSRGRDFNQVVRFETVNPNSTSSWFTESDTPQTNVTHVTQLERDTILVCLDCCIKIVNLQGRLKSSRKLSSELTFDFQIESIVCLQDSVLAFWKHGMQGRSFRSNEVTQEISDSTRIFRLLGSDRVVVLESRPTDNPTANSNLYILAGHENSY

[2] = biological target: Mitogen-activated protein kinase 14 (Homo sapiens, UniProt Q16539); test: Selectivity interaction (Kinase panel (DSF assay)) EUB0001559a MAPK14
[3] = biological target: Casein kinase I isoform delta (Homo sapiens, UniProt P48730); test: Selectivity interaction (Kinase panel (Invitrogen)) EUB0000639a CSNK1D; conditions: at 200 nM
[4] = biological target: T2, Interleukin-1 receptor-associated kinase 3 (Homo sapiens) (UniProt Q9Y616); test: Selectivity interaction (ActivX KiNativ screen (kinase selectivity in THP-1 cell lysates)) EUB0000639a IRAK3; assay type: subcellular; conditions: lysate, at 5 µM
T2 sequence (whole entry): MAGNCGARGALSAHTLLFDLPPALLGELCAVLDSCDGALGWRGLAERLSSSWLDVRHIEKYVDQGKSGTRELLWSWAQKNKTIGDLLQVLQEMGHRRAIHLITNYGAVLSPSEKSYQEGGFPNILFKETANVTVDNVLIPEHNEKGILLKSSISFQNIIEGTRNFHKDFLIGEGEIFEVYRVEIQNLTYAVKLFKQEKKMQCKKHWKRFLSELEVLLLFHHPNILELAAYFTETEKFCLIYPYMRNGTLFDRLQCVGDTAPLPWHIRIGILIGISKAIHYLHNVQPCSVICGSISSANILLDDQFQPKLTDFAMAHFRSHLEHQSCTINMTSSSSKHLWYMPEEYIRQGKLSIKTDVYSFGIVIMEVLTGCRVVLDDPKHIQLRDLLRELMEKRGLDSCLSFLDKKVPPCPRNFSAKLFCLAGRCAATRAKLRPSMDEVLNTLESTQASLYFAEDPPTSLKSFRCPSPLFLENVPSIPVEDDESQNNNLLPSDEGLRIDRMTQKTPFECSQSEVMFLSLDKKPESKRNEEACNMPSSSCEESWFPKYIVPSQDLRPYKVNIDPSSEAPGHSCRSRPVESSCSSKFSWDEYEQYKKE

[5] = biological target: T3, Activin receptor type-1B (Homo sapiens) (UniProt P36896); test: Selectivity interaction (KinomeScan (DiscoverX)) EUB0001049a ACVR1B; conditions: at 1 µM
T3 sequence (whole entry): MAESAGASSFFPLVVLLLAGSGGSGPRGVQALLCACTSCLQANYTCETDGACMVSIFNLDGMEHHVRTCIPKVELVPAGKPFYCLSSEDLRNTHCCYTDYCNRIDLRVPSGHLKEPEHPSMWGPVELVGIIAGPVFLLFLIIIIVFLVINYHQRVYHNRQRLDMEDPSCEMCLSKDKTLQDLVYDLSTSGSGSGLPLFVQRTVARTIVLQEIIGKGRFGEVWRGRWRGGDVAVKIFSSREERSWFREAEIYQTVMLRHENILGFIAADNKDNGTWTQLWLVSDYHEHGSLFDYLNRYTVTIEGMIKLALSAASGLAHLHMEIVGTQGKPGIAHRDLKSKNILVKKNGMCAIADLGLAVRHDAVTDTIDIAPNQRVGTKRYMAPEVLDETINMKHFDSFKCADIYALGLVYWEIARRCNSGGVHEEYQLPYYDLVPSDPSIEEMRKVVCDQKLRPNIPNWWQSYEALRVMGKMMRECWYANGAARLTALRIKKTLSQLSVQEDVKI

[6] = biological target: T4, Protein kinase C iota type (Homo sapiens) (UniProt P41743); test: Selectivity interaction (KinomeScan (DiscoverX)) EUB0000695a PRKCI; conditions: at 100 nM
T4 sequence (whole entry): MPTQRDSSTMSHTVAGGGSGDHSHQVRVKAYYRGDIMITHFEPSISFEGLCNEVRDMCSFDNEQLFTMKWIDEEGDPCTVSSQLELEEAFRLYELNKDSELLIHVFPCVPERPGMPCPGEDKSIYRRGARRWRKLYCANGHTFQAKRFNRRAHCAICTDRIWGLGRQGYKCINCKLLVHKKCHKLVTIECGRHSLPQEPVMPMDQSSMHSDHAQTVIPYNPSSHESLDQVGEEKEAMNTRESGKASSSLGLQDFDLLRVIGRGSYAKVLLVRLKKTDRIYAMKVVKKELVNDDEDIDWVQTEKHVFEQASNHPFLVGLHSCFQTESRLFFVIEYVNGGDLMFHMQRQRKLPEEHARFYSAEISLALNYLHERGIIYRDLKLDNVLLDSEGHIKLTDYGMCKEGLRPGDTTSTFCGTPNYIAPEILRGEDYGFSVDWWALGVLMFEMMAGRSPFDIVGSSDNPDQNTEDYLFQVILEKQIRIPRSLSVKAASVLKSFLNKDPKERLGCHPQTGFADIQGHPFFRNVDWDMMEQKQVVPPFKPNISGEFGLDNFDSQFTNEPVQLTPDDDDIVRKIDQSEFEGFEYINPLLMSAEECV

[7] = biological target: Tyrosine-protein kinase ITK/TSK (Homo sapiens, UniProt Q08881); test: Selectivity interaction (Kinase counterscreening (biochemical assay)) EUB0000604a ITK
[8] = biological target: Myosin light chain kinase, smooth muscle (Homo sapiens, UniProt Q15746); test: Selectivity interaction (KinomeScan (DiscoverX)) EUB0001619a MYLK; conditions: at 1 µM
Chain of Myosin light chain kinase, smooth muscle (Q15746 whole entry): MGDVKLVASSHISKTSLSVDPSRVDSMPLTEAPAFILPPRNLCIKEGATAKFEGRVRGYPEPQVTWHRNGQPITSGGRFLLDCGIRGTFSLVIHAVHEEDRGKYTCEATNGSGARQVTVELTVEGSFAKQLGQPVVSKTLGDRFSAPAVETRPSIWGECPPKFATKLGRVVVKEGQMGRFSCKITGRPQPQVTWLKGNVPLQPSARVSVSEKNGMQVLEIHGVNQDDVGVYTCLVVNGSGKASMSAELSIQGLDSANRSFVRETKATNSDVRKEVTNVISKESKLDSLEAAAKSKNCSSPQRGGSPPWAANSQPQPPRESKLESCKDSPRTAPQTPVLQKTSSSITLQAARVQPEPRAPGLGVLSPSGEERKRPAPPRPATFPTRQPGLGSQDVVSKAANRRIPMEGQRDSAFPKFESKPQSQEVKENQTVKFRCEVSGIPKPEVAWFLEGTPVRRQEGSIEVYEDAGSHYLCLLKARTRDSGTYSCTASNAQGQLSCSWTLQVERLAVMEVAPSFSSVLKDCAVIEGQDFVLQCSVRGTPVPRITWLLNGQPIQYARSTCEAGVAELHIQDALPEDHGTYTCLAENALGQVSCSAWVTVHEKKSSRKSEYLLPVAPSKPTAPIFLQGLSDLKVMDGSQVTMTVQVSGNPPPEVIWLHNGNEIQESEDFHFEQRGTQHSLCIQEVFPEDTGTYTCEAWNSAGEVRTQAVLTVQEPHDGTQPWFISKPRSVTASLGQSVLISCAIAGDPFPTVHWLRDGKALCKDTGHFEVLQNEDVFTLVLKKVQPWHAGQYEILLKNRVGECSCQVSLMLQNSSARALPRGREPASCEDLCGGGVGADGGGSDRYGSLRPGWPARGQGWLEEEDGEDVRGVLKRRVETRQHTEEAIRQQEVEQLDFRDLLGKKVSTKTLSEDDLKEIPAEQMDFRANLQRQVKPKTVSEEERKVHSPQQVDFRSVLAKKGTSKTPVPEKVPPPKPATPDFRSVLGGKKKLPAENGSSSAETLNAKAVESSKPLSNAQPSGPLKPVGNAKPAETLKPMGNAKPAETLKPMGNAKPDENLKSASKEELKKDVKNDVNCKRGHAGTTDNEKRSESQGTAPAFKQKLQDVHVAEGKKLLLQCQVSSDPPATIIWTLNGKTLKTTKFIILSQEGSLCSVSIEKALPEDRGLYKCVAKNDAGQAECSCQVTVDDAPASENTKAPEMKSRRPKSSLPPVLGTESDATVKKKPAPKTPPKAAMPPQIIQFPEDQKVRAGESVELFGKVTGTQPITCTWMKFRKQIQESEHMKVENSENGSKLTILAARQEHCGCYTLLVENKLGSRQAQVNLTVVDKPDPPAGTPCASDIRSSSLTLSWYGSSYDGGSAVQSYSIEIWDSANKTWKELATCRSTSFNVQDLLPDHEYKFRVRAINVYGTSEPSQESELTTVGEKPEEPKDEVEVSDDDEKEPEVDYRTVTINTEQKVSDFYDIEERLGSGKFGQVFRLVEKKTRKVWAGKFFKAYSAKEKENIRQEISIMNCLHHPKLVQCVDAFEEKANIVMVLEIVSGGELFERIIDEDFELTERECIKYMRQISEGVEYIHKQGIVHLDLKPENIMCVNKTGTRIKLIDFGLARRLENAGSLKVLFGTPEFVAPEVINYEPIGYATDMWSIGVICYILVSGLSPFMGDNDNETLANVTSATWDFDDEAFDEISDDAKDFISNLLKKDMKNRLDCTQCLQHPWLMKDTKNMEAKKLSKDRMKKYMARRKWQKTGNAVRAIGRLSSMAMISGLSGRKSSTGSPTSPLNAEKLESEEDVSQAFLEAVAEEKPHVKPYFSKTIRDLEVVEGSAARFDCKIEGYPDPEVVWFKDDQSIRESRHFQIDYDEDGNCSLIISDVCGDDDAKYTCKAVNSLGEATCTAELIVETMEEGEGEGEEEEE

Chain of Tyrosine-protein kinase ITK/TSK (Q08881 whole entry): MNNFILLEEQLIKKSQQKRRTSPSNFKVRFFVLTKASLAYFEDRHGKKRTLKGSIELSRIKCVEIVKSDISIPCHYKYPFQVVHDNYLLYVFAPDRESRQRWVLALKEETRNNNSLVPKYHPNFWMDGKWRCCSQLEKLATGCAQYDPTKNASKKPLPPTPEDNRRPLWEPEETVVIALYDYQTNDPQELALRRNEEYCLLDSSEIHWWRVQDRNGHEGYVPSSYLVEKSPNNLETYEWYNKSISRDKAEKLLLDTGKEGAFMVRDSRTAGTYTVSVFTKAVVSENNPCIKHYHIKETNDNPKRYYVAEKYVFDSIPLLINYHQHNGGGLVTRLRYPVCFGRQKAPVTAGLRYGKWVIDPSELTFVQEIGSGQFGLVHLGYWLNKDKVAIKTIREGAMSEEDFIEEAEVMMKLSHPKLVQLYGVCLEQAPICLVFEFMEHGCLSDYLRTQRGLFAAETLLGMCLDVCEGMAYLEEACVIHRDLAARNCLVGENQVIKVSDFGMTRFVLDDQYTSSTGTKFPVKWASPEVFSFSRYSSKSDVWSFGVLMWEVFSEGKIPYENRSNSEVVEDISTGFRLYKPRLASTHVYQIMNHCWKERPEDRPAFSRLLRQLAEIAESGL
Chain of Casein kinase I isoform delta (P48730 whole entry, looked up, canonical isoform): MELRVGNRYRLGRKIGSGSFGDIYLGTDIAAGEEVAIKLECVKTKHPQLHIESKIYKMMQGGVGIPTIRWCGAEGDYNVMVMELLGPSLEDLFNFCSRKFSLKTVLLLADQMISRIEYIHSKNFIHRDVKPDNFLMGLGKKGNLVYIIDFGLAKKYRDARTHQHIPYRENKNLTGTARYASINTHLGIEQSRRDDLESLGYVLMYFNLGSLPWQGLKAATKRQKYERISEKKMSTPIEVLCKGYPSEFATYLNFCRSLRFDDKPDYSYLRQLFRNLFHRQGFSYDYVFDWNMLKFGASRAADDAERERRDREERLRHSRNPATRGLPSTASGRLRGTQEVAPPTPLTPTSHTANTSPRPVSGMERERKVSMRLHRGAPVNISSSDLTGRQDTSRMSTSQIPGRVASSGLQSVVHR
Chain of Mitogen-activated protein kinase 14 (Q16539 whole entry, canonical isoform): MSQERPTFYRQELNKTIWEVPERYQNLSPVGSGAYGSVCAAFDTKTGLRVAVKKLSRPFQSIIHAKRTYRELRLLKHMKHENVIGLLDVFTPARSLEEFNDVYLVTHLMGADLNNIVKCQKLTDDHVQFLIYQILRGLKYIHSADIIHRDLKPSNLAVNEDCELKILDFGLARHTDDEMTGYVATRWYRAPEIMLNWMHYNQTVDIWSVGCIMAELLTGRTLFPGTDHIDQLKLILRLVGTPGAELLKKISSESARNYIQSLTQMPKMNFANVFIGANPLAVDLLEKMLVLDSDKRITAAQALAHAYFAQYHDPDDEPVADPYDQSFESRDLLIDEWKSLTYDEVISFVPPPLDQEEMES

## COc1cc(N(C)c2ccnc3ccc(C(F)(F)F)cc23)cc(OC)c1OC
[1]
  % binding: 87%

## CN(C(=O)c1cnn2cccnc12)c1cc2c(cc1N1CCOCC1)C(=O)N(C[C@@H](F)C(C)(C)O)C2
[2]
  dTM: -0.3 K

## CC[C@@H]1[C@H](F)C(=O)N[C@@H]1COc1nccc2cc(C(N)=O)c(OC)cc12 [ZIMLOVISERTIB]
[3]
  % of inhibition: 52.2%
[4]
  % of inhibition: 94.3%

## COc1cc(Nc2nc(C)cc(-c3cnn4nc(OC)ccc34)n2)cc(C(F)(F)F)c1
[5]
  % of control: 100%

## Cc1cc(F)c(C(=O)Nc2cccc(-c3nncn3C(C)C)n2)cc1-n1cnc(C2CC2)c1
[6]
  % of control: 95%

## Cc1cnc(Nc2ccc(F)cc2Cl)nc1-c1c[nH]c(C(=O)N[C@H](CO)c2cccc(Cl)c2)c1
[7]
  Ki: > 4 µM

## N#Cc1cccc(-c2c[nH]c3ncnc(N4CCOCC4)c23)c1
[8]
  % of control: 93%

Reference: ChEMBL document CHEMBL5465560, “Selectivity Literature for EUbOPEN Chemogenomic Library” (2024)
